Experimental data reported in PubChem BioAssay AID330 (DTP/NCI, 2004).
Values joined by “and” are separate entries in the source; they are usually repeats but may differ in a detail not shown here. Identical values can stand only once. Toxic doses and inconclusive results are not listed.

Tested on: P388 leukemia ip, CD2F1 mice, survival T/C
Experiment: NCI In Vivo Anticancer Drug Screen. Data for tumor model P388 Leukemia (intraperitoneal) in CD2F1 (CDF1) mice
Conditions: endpoint: median survival time, higher = longer survival
Method in brief: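 Mice carrying the transplanted tumor received test compound or vehicle. Survival was recorded in each group, and the value is the treated-group measurement divided by that of the vehicle-treated control group.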

[1] = dose: 12.5 mg/kg/injection, schedule: Q01DX009 (ip), vehicle: distilled water + Tween-80
[2] = dose: 50.0 mg/kg/injection, schedule: Q01DX009 (ip), vehicle: distilled water + Tween-80
[3] = dose: 60.0 mg/kg/injection, schedule: Q01DX005 (ip), vehicle: Klucel (hydroxypropylcellulose) (HPC)
[4] = dose: 120.0 mg/kg/injection, schedule: Q01DX005 (ip), vehicle: Klucel (hydroxypropylcellulose) (HPC)
[5] = dose: 50.0 mg/kg/injection, schedule: Q01DX009 (ip), vehicle: saline with Tween-80
[6] = dose: 100.0 mg/kg/injection, schedule: Q01DX009 (ip), vehicle: saline with Tween-80
[7] = dose: 200.0 mg/kg/injection, schedule: Q01DX009 (ip), vehicle: saline with Tween-80
[8] = dose: 50.0 mg/kg/injection, schedule: Q01DX009 (ip), vehicle: saline
[9] = dose: 100.0 mg/kg/injection, schedule: Q01DX009 (ip), vehicle: saline
[10] = dose: 200.0 mg/kg/injection, schedule: Q01DX009 (ip), vehicle: saline
[11] = dose: 15.0 mg/kg/injection, schedule: Q01DX005 (ip), vehicle: saline with Tween-80
[12] = dose: 60.0 mg/kg/injection, schedule: Q01DX005 (ip), vehicle: saline with Tween-80
[13] = dose: 100.0 mg/kg/injection, schedule: Q01DX005 (ip), vehicle: saline with Tween-80
[14] = dose: 50.0 mg/kg/injection, schedule: Q04DX003 (ip), vehicle: saline with Tween-80
[15] = dose: 100.0 mg/kg/injection, schedule: Q04DX003 (ip), vehicle: saline with Tween-80

SMILES: CNC(=O)OCc1c(COC(=O)NC)c(-c2ccc(SC)cc2)n(C)c1C
- T/C (dose: 3.13 mg/kg/injection, schedule: Q01DX009 (ip), vehicle: distilled water + Tween-80): 187 % of control
- T/C [1]: 152 % of control
- T/C [2]: 150 % of control

SMILES: COC(=O)c1c(C)oc(C)c1-c1ccc(OCc2ccccc2)c(OC)c1
- T/C [3]: 114 % of control
- T/C [4]: 98 % of control
- T/C (dose: 240.0 mg/kg/injection, schedule: Q01DX005 (ip), vehicle: Klucel (hydroxypropylcellulose) (HPC)): 94 % of control

SMILES: COC1=C(C)[C@@H]2CC(=O)O[C@@H]3C[C@H]4[C@H](C)C[C@H](OC5OC(CO)C(O)C(O)C5O)C(=O)[C@]4(C)[C@@H](C1=O)[C@@]32C (stereo not given in full)
- T/C (dose: 5.0 mg/kg/injection, schedule: Q01DX005 (ip), vehicle: Klucel (hydroxypropylcellulose) (HPC)): 103 % of control
- T/C (dose: 10.0 mg/kg/injection, schedule: Q01DX005 (ip), vehicle: Klucel (hydroxypropylcellulose) (HPC)): 107 % of control
- T/C (dose: 20.0 mg/kg/injection, schedule: Q01DX005 (ip), vehicle: Klucel (hydroxypropylcellulose) (HPC)): 103 % of control

SMILES: NC(=S)Nc1ccccc1
- T/C (dose: 2.5 mg/kg/injection, schedule: Q01DX009 (ip), vehicle: saline with Tween-80): 100 % of control
- T/C (dose: 2.5 mg/kg/injection, schedule: Q04DX003 (ip), vehicle: saline sonified): 100 % of control
- T/C (dose: 5.0 mg/kg/injection, schedule: Q01DX009 (ip), vehicle: saline with Tween-80): 100 % of control
- T/C (dose: 5.0 mg/kg/injection, schedule: Q04DX003 (ip), vehicle: saline sonified): 104 % of control
- T/C (dose: 10.0 mg/kg/injection, schedule: Q01DX009 (ip), vehicle: saline with Tween-80): 100 % of control
- T/C (dose: 10.0 mg/kg/injection, schedule: Q04DX003 (ip), vehicle: saline sonified): 95 % of control

SMILES: CCOC(=O)c1ccc(NN=NC(C)(C)C)cc1
- T/C [1]: 91 % of control
- T/C (dose: 25.0 mg/kg/injection, schedule: Q01DX009 (ip), vehicle: distilled water + Tween-80): 93 % of control
- T/C [2]: 86 % of control
- T/C (dose: 100.0 mg/kg/injection, schedule: Q01DX009 (ip), vehicle: distilled water + Tween-80): 93 % of control
- T/C (dose: 200.0 mg/kg/injection, schedule: Q01DX009 (ip), vehicle: distilled water + Tween-80): 86 % of control

SMILES: O=C(O)CCCCOC(C[N+](=O)[O-])C(Cl)(Cl)Cl (stereo not given)
- T/C [5]: 100 % of control
- T/C [6]: 95 % of control
- T/C [7]: 99 % of control

SMILES: COc1ccc(-c2c(C#N)c(N)nc(C)c2-c2ccccc2)cc1
- T/C (dose: 100.0 mg/kg/injection, schedule: Q01DX001 (ip), vehicle: saline with Tween-80): 100 % of control
- T/C (dose: 200.0 mg/kg/injection, schedule: Q01DX001 (ip), vehicle: saline with Tween-80): 96 % of control
- T/C (dose: 400.0 mg/kg/injection, schedule: Q01DX001 (ip), vehicle: saline with Tween-80): 91 % of control

SMILES: CC1(C)OC(=O)C(=CN(C2CCCCC2)C2CCCCC2)C(=O)O1
- T/C [3]: 96 % of control
- T/C [4]: 86 % of control

SMILES: O=C1OC(c2ccccc2)=N/C1=C\c1ccccc1O
- T/C (dose: 50.0 mg/kg/injection, schedule: Q01DX005 (ip), vehicle: Klucel (hydroxypropylcellulose) (HPC)): 101 % of control
- T/C (dose: 100.0 mg/kg/injection, schedule: Q01DX005 (ip), vehicle: Klucel (hydroxypropylcellulose) (HPC)): 101 % of control
- T/C (dose: 200.0 mg/kg/injection, schedule: Q01DX005 (ip), vehicle: Klucel (hydroxypropylcellulose) (HPC)): 93 % of control

SMILES: O=C1C(Cl)=C(NCCCN(CCCNC2=C(Cl)C(=O)c3ccccc3C2=O)C2=C(Cl)C(=O)c3ccccc3C2=O)C(=O)c2ccccc21
- T/C [8]: 108 % of control and 118 % of control
- T/C [9]: 109 % of control and 115 % of control
- T/C [10]: 105 % of control and 108 % of control

SMILES: O=C(Cc1nc2ccc(Cl)cc2nc1CC(=O)c1ccccc1)c1ccccc1
- T/C [11]: 102 % of control
- T/C (dose: 30.0 mg/kg/injection, schedule: Q01DX005 (ip), vehicle: saline with Tween-80): 111 % of control
- T/C [12]: 100 % of control and 107 % of control

SMILES: Cc1ccc(SCC#CC#CCS(=O)c2ccc(C)cc2)cc1 (stereo not given)
- T/C (dose: 50.0 mg/kg/injection, schedule: Q01DX005 (ip), vehicle: saline with Tween-80): 110 % of control
- T/C [13]: 107 % of control

SMILES: C[c-]1[c-][c-][c-][c-]1.C[c-]1[c-][c-][c-][c-]1.[C-]#[O+].[C-]#[O+].[C-]#[O+].[C-]#[O+].[C-]#[O+].[C-]#[O+].[Mo].[Mo]
- T/C [13]: 98 % of control
- T/C (dose: 200.0 mg/kg/injection, schedule: Q01DX005 (ip), vehicle: saline with Tween-80): 93 % of control

SMILES: C/C(=N\NC(=S)N1CC(C)OC(C)C1)c1ncccn1 (stereo not given)
- T/C (dose: 7.5 mg/kg/injection, schedule: Q01DX005 (ip), vehicle: saline with Tween-80): 104 % of control
- T/C [11]: 98 % of control

SMILES: CC(C)(C)NCC(O)COc1cccc2c1CCC(=O)N2 (stereo not given)
- T/C [5]: 100 % of control
- T/C [6]: 102 % of control
- T/C [7]: 97 % of control

SMILES: CN(c1ccc(C2=NCCN2)cc1)S(=O)(=O)c1ccc(Oc2ccc(S(=O)(=O)N(C)c3ccc(C4=NCCN4)cc3)cc2)cc1
- T/C (dose: 6.25 mg/kg/injection, schedule: Q01DX005 (ip), vehicle: Klucel (hydroxypropylcellulose) (HPC)): 100 % of control
- T/C (dose: 12.5 mg/kg/injection, schedule: Q01DX005 (ip), vehicle: Klucel (hydroxypropylcellulose) (HPC)): 100 % of control
- T/C (dose: 25.0 mg/kg/injection, schedule: Q01DX005 (ip), vehicle: Klucel (hydroxypropylcellulose) (HPC)): 109 % of control

SMILES: COC(=O)OC(C#N)c1ccccc1[N+](=O)[O-] (stereo not given)
- T/C (dose: 1.56 mg/kg/injection, schedule: Q01DX009 (ip), vehicle: saline): 88 % of control
- T/C (dose: 3.12 mg/kg/injection, schedule: Q01DX009 (ip), vehicle: saline): 98 % of control
- T/C (dose: 6.25 mg/kg/injection, schedule: Q01DX009 (ip), vehicle: saline): 105 % of control
- T/C (dose: 6.25 mg/kg/injection, schedule: Q01DX009 (ip), vehicle: suspension in saline): 88 % of control
- T/C [10]: 94 % of control

SMILES: N#CCCSc1nnc(SCCC#N)s1
- T/C (dose: 50.0 mg/kg/injection, schedule: Q01DX009 (ip), vehicle: Klucel (hydroxypropylcellulose) (HPC)): 92 % of control
- T/C (dose: 100.0 mg/kg/injection, schedule: Q01DX009 (ip), vehicle: Klucel (hydroxypropylcellulose) (HPC)): 101 % of control
- T/C (dose: 200.0 mg/kg/injection, schedule: Q01DX009 (ip), vehicle: Klucel (hydroxypropylcellulose) (HPC)): 94 % of control
- T/C (dose: 400.0 mg/kg/injection, schedule: Q01DX009 (ip), vehicle: Klucel (hydroxypropylcellulose) (HPC)): 90 % of control

SMILES: Nc1nc(N)n(N)c(=S)n1
- T/C [14]: 96 % of control
- T/C [15]: 106 % of control

SMILES: Nc1nc(=S)c2ncn(C3OC(COC(=O)c4ccc(Cl)cc4)C(OC(=O)c4ccc(Cl)cc4)C3OC(=O)c3ccc(Cl)cc3)c2[nH]1 (stereo not given)
- T/C (dose: 25.0 mg/kg/injection, schedule: Q01DX009 (ip), vehicle: saline with Tween-80): 122 % of control
- T/C (dose: 25.0 mg/kg/injection, schedule: Q04DX003 (ip), vehicle: saline with Tween-80): 95 % of control
- T/C [14]: 100 % of control
- T/C [15]: 104 % of control
- T/C (dose: 132.0 mg/kg/injection, schedule: Q04DX003 (ip), vehicle: saline with Tween-80): 116 % of control
- T/C (dose: 400.0 mg/kg/injection, schedule: Q04DX003 (ip), vehicle: saline with Tween-80): 104 % of control

SMILES: Cc1cc2nc(CC(=O)c3ccncc3)c(CC(=O)c3ccncc3)nc2cc1C
- T/C [12]: 106 % of control
- T/C (dose: 120.0 mg/kg/injection, schedule: Q01DX005 (ip), vehicle: saline with Tween-80): 91 % of control
- T/C (dose: 240.0 mg/kg/injection, schedule: Q01DX005 (ip), vehicle: saline with Tween-80): 91 % of control

SMILES: COc1cc(/C=C/c2ccnnc2)cc(OC)c1OC
- T/C [8]: 97 % of control
- T/C [9]: 94 % of control
- T/C [10]: 87 % of control

SMILES: NC(=O)c1cnc2nc1NCCCCCCC2
- T/C (dose: 100.0 mg/kg/injection, schedule: Q04DX002 (ip), vehicle: Klucel (hydroxypropylcellulose) (HPC)): 100 % of control
- T/C (dose: 200.0 mg/kg/injection, schedule: Q04DX002 (ip), vehicle: Klucel (hydroxypropylcellulose) (HPC)): 98 % of control
- T/C (dose: 400.0 mg/kg/injection, schedule: Q04DX002 (ip), vehicle: Klucel (hydroxypropylcellulose) (HPC)): 90 % of control
